Like-named read-outs stand apart in the source and are kept apart here.
Legend:
[1] = In vitro metabolic stability, human liver microsome; format: in vitro ADME; settings: liver microsomes, 1 mg/mL liver microsome protein, 37° C., NA = essentially not metabolized, read-out: T1/2 in human liver microsome
Method in brief: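 Compounds incubated with rat or human liver microsomes. At each time point reactions stopped with cold acetonitrile containing internal standards and centrifuged. Supernatants analysed by LC-MS to derive in vitro metabolic half-life.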

Male SD rats = assay: Two-bottle dysgeusia test (quinine water vs normal water); format: in vivo, rat; settings: for Ratio of quinine/water intake (in words): compared with the blank vehicle; for Quinine/tap water* 100%: rats, single intraperitoneal injection
Procedure: All drinking water bottles were removed out 20 h before the start of the formal experiment, and all the animals were deprived of water until the start of the experiment. In the experiment, all the animals were randomly grouped and then subjected to a single intraperitoneal injection of a test compound or a vehicle before water was resupplied. The administration time was determined according to the Tmax of the test compound. Then the animals were placed in separate cages, and two bottles of drinking water (one bottle of normal drinking water and one bottle of 0.3 mM quinine water) were provided.

[2] = target: hP2X3 (human purinergic P2X receptor subtype 3) (Homo sapiens (Human), UniProt P56373); assay: FLIPR calcium assay, hP2X3 expressed in HEK293 cells; format: cell-based; settings: read-out: P2X3 IC50
Sequence of hP2X3 (human purinergic P2X receptor subtype 3) (P56373 whole entry): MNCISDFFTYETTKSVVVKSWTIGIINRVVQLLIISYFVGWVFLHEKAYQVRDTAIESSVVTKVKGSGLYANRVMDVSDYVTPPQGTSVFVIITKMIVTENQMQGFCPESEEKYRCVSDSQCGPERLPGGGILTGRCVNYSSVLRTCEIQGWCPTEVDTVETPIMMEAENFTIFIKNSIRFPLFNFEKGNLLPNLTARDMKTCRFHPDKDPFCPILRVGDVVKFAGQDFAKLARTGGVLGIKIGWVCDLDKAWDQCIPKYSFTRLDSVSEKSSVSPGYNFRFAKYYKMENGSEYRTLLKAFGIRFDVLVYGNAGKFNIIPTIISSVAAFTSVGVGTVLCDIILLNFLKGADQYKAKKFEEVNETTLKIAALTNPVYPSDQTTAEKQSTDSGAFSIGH

[3] = In vitro cytotoxicity assay, CCK-8 method; format: cell-based; settings: human, HepG2 cells
Method in brief: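 HepG2 cells at 50,000/well, grown to 80–90% confluence, exposed to compound dilutions or DMSO vehicle for 48 h at 37 °C. Viability by CCK-8 (1.5 h, 37 °C), absorbance at 450 nm; CC50 calculated.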

[4] = In vitro metabolic stability, guinea pig liver microsome; format: in vitro ADME; settings: liver microsomes, 1 mg/mL liver microsome protein, 37° C., NA = essentially not metabolized, read-out: T1/2 in guinea pig liver microsome
Procedure: (§1) The in vitro metabolic stability of the compounds disclosed herein was determined through incubation of liver microsomes of various species. A proper amount of test compound was added into a liver microsome reaction system (1 mg/mL liver microsome protein, 25 U/mL glucose-6 phosphate dehydrogenase, 1 mM NADP, 6 mM D-glucose 6-phosphate and 5 mM MgCl2), and then the mixture was incubated in a water bath kettle at 37° C. to start the reaction. At each time point, 100 μL of the reaction mixture was added into a centrifuge tube containing 400 μL of internal standard working solution (containing a 200 ng/mL solution of dexamethasone, diclofenac, tolbutamide and labetalol in acetonitrile) precooled at 0° C. so as to terminate the reaction, and the mixture was then centrifuged at 10,000 g for 10 min at 4° C. The supernatant was collected for LC-MS assay so as to obtain the values of in vitro metabolic half-life of the test compounds in liver microsomes of various species.

[5] = target: hP2X2/3 (heterodimeric receptors formed by human purinergic P2X receptors subtype 2 and subtype 3) (Homo sapiens (Human), UniProt P56373+Q9UBL9); assay: FLIPR calcium assay, hP2X2/3 expressed in HEK293 cells (P2X2/3 receptor selectivity); format: cell-based; settings: for IC50: HEK293 cells expressing hP2X2/3, agonist BZ-ATP 5 μM, unit inferred
Sequence of hP2X2/3 (heterodimeric receptors formed by human purinergic P2X receptors subtype 2 and subtype 3) (P56373 whole entry): as above
Sequence of hP2X2/3 (heterodimeric receptors formed by human purinergic P2X receptors subtype 2 and subtype 3) (Q9UBL9 whole entry): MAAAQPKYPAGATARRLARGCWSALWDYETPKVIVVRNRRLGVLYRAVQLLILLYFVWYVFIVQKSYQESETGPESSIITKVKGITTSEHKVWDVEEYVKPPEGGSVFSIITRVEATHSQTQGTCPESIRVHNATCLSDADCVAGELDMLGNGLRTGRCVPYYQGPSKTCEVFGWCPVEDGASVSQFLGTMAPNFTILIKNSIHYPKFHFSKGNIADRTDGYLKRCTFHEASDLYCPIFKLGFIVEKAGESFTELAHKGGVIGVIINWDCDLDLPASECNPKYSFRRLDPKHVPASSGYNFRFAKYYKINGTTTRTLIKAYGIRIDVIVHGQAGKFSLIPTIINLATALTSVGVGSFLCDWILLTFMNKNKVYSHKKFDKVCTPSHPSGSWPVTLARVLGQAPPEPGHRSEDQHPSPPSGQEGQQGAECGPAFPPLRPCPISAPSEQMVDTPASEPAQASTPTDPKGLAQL

[6] = system: Male Dunkin Hartley guinea pigs; assay: Citric acid only cough model; format: in vivo, guinea pig; settings: 30 mg/kg; for Number of coughs and cough latency (in words): compared with the blank vehicle or the condition before administration; for inhibition in vivo at 30 mg/kg: Cavia porcellus
Procedure: Male Dunkin Hartley guinea pigs (300-350 g) were placed in an animal atomization box, and then the door of the atomization box was closed while the ultrasonic atomizer (Guangdong Yuehua) was turned on. 17.5% citric acid gas was introduced into the atomization box at a maximum atomization rate (about 2 mL/min) for 20 s, and coughs of the animals within 10 min were continuously observed from the time of the start of atomization. During the 10-min observation, coughs of the animals were counted manually, and the number of coughs were judged according to cough postures of the guinea pigs, such as abdominal twitching, mouth opening, and head inclining downward abruptly. The number of coughs during the first 5 min and that during 10 min were recorded, and the cough latency of the guinea pigs, namely the time from the initiation of citric acid induction to the appearance of the first cough, was also recorded.

[7] = In vitro metabolic stability, rat liver microsome; format: in vitro ADME; settings: liver microsomes, 1 mg/mL liver microsome protein, 37° C., NA = essentially not metabolized, read-out: T1/2 in rat liver microsome
Procedure: as §1, with “A proper amount of test compound was added into a liver microsome reaction system (1 mg/mL liver microsome protein, 25 U/mL glucose-6 phosphate dehydrogenase, 1 mM NADP, 6 mM D-glucose 6-phosphate and 5 mM MgCl2), and then the mixture was incubated in a water bath kettle at 37° C. to start the reaction.” left out

[8] = system: Male Dunkin Hartley guinea pigs; assay: ATP-citric acid cough model; format: in vivo, guinea pig
Procedure: Male Dunkin Hartley guinea pigs (300-400 g) were placed into a whole-body plethysmography box to adapt for 3-5 min, then ATP atomization is carried out for 2 min, and 3 min later, 5 min of citric acid atomization was followed, with all atomization rates being about 300 uL/min. The number of coughs and the cough latency of the animals within 10 min from the start of the citric acid atomization were recorded. During the 10-min observation, coughs of the animals were counted manually, and the coughs were judged according to cough postures of the guinea pigs, such as abdominal twitching, mouth opening, head inclining downward abruptly and the like. The number of coughs during 10 min were recorded, and the cough latency of the guinea pigs was also recorded.
The animals were divided into a vehicle group, a dextromethorphan (63 mg/kg) positive group, an AF-219 (30 mg/kg) positive group and Example 173 compound (3, 10, 30 mg/kg) administration groups, and all the compounds were orally administered. Except that dextromethorphan was administered 40 min before ATP-citric acid exposure, the remaining compounds were administered 2 h before ATP-citric acid exposure.

[9] = Table 8, 20 mg/kg, water intake within 15 min, 0.3 mM quinine
[10] = read-out: Cough inhibition rate Vs Baseline (%)
[11] = read-out: Cough inhibition rate Vs Vehicle (%)
[12] = 63 mg/kg oral, 40 min before ATP-citric acid exposure

| Structure (SMILES) | half-life [1] [h] | Ratio of quinine/water intake (in words) (Male SD rats; 20 mg/kg) | Quinine/tap water* 100% (Male SD rats; [9]) [%] | IC50 [2] [µM] | CC50 at 48 h [3] [µM] | half-life [4] [h] | Folds of selectivity [5] | IC50 [5] [µM] | Number of coughs and cough latency (in words) [6] | inhibition in vivo at 30 mg/kg [6, 10] [%] | inhibition in vivo at 30 mg/kg [6, 11] [%] | half-life [7] [h] | Cough inhibition ratio vs. vehicle (%) [8, 12] [%] | Number of coughs during 10 min [8, 12] | Number of coughs / cough inhibition (in words) ([8]; compared with the vehicle group) | Quinine/tap water* 100% (Male SD rats; Table 9, 10 mg/kg) [%] | Quinine/tap water* 100% (Male SD rats; Table 9, 20 mg/kg) [%] |
| --- | --- | --- | --- | --- | --- | --- | --- | --- | --- | --- | --- | --- | --- | --- | --- | --- | --- |
| COC(=O)N1CCO[C@@H](Cc2c(-c3c(F)cc(NC(C)=O)cc3F)nc3cc(C)ccn23)C1 [Compound 2, methyl (S)-2-((2-(2,6-difluoro-4-acetamidophenyl)-7-methylimidazo[1,2-a]pyridin-3-yl)-methyl)morpholine-4-carboxylate] | 14.9 | almost unaffected | 5.49 | < 0.01 | 124 | 1.59 | A (key: A: folds of selectivity >1000; B: 200< folds of selectivity ≤1000; C: folds of selectivity ≤200) | > 60 | can effectively reduce the number of coughs and prolong the cough latency | 38.7 | 34.2 | 0.872 |  |  |  |  |  |
| COC(=O)N1CCO[C@@H](Cc2c(-c3c(F)cc(-c4ncc[nH]4)cc3F)nc3cc(C)ccn23)C1 [Compound 7, methyl (S)-2-((2-(2,6-difluoro-4-(1H-imidazol-2-yl)phenyl)-7-methylimidazo[1,2-a]pyridin-3-yl)methyl)morpholine-4-carboxylate] | 2.13 | almost unaffected | 6.91 | < 0.01 | 195 | 0.348 | A (key: A: folds of selectivity >1000; B: 200< folds of selectivity ≤1000; C: folds of selectivity ≤200) | > 60 | can effectively reduce the number of coughs and prolong the cough latency | 42.6 | 38.3 | 0.326 |  |  |  |  |  |
| COC(=O)N1CCO[C@@H](Cc2c(-c3c(F)cc(N)cc3F)nc3cc(Cl)ccn23)C1 [Compound 161, methyl (S)-2-((2-(4-amino-2,6-difluorophenyl)-7-chloroimidazo[1,2-a]pyridin-3-yl)methyl)morpholine-4-carboxylate] |  | almost unaffected | 5.03 | 0.01 to 0.05 | > 100 |  | A (key: A: folds of selectivity >1000; B: 200< folds of selectivity ≤1000; C: folds of selectivity ≤200) | > 60 | can effectively reduce the number of coughs and prolong the cough latency | 66.2 | 63.5 |  |  |  |  |  |  |
| CC(=O)N1CCO[C@@H](Cc2c(-c3c(F)cc(-n4ccnc4)cc3F)nc3cc(C)ccn23)C1 [Compound 162, (S)-1-(2-((2-(2,6-difluoro-4-(1H-imidazol-1-yl)phenyl)-7-methylimidazo[1,2-a]pyridin-3-yl)methyl)morpholino)ethan-1-one] |  | almost unaffected | 6.34 | < 0.01 | > 100 |  | A (key: A: folds of selectivity >1000; B: 200< folds of selectivity ≤1000; C: folds of selectivity ≤200) | > 60 | can effectively reduce the number of coughs and prolong the cough latency | 46.1 | 42.8 |  |  |  |  |  |  |
| CCC(=O)c1ccn(-c2cc(F)c(-c3nc4cc(C)ccn4c3C[C@H]3CN(C(=O)OC)CCO3)c(F)c2)n1 [Compound 164, methyl (S)-2-((2-(2,6-difluoro-4-(3-propionyl-1H-pyrazol-1-yl)phenyl)-7-methylimidazo[1,2-a]pyridin-3-yl)methyl) morpholine-4-carboxylate] |  | almost unaffected | 6.69 |  | > 100 |  | A (key: A: folds of selectivity >1000; B: 200< folds of selectivity ≤1000; C: folds of selectivity ≤200) | > 60 |  | 67.2 | 65.2 |  |  |  |  |  |  |
| CC(=O)N1CCO[C@@H](Cc2c(-c3c(F)cc(-c4nnc[nH]4)cc3F)nc3cc(C)ccn23)C1 [Compound 165] |  | almost unaffected | 3.90 | < 0.01 | > 100 |  | A (key: A: folds of selectivity >1000; B: 200< folds of selectivity ≤1000; C: folds of selectivity ≤200) | > 60 | can effectively reduce the number of coughs and prolong the cough latency | 54.5 | 53.6 |  |  |  |  |  |  |
| COc1ccc2c(c1)[C@]13CCCC[C@@H]1[C@H](C2)N(C)CC3 [Dextromethorphan, dextromethorphan, reference compound] |  |  |  |  |  |  |  |  |  |  |  |  | 61.60 | 8.00 | can significantly reduce the number of coughs |  |  |
| COc1cc(C(C)C)c(Oc2cnc(N)nc2N)cc1S(N)(=O)=O [Positive compound 2, reference compound] |  |  | 59.41 |  | > 200 | 14.9 |  |  |  |  |  | 18.2 |  |  |  | 18.62 | 34.99 |

Reference: patent US20240034729A9, “HETEROCYCLIC COMPOUND, INTERMEDIATE, PREPARATION METHOD THEREFOR AND APPLICATION THEREOF” (WUHAN LL SCIENCE AND TECHNOLOGY DEVELOPMENT CO., LTD., priority 2018, published 2024)
